Values quoted from earlier work, collected in patent US11608532B2, “Precision medicine for treating and preventing suicidality” (Indiana University Research and Technology Corporation, priority 2017, dated 2023).
Read-outs that look alike come from different tables or passages of the source.

How the values were obtained:
[1] = test system: individual top biomarkers for suicidality; settings: for TNF modulated by drug in opposite direction to suicide: direction of change in suicidality (I) DE/1, (I) AP/1
[2] = test system: top male bipolar biomarkers for suicidality; settings: for Drugs that Modulate the Biomarker in Opposite Direction to Suicide: (I) in suicidality, male bipolars
[3] = B. Top Biomarkers in Males, direction of change in suicidality I, DE/2
[4] = D. Top Biomarkers in Bipolar Disorder, direction of change in suicidality (D), DE/1
[5] = biomarker BCL2 (B-cell CLL/lymphoma 2)
[6] = C. Top Biomarkers in Females, direction of change in suicidality I, DE/2
[7] = G. Top Biomarkers in Males with Depression, direction of change in suicidality (D), AP/2
[8] = A. Top Universal Biomarkers, direction of change in suicidality (I), DE/2
[9] = D. Top Biomarkers in Bipolar Disorder, direction of change in suicidality (I), DE/2
[10] = F. Top Biomarkers in Males with Bipolar Disorder, direction of change in suicidality (I), DE/2
[11] = D. Top Biomarkers in Bipolar Disorder
[12] = E. Top Biomarkers in Depression, direction of change in suicidality (I), DE/1
[13] = A. Top Universal Biomarkers, direction of change in suicidality (D), AP/1
[14] = biomarker HTR2A (5-hydroxytryptamine (serotonin) receptor 2A, G protein-coupled)

## C[C@H]1Oc2c(cccc2N2CCN(CCCc3c[nH]c4ccc(F)cc34)CC2)NC1=O [SLV-314]
[1]; [3]
  SLC6A4 modulated by drug in opposite direction to suicide: SLV-314
[1]; [4]
  SLC6A4 modulated by drug in opposite direction to suicide: SLV-314

## CC(=O)O[C@H]1C(=O)[C@@]2(C)[C@H]([C@H](OC(=O)c3ccccc3)[C@]3(O)C[C@H](OC(=O)[C@H](O)[C@@H](NC(=O)c4ccccc4)c4ccccc4)C(C)=C1C3(C)C)[C@]1(OC(C)=O)CO[C@@H]1C[C@@H]2O [Paclitaxel]
[1]; [5]
  Step 6 Drugs that Modulate the Biomarker in Opposite Direction to Suicide: Paclitaxel

## CN1CCN(c2ccc(C(=O)Nc3n[nH]c4ccc(Cc5cc(F)cc(F)c5)cc34)c(NC3CCOCC3)c2)CC1 [entrectinib]
[1]; [6]
  NTRK3 modulated by drug in opposite direction to suicide: entrectinib,
[1]; E. Top Biomarkers in Depression, direction of change in suicidality (I) AP/2, (I) DE/1
  NTRK3 modulated by drug in opposite direction to suicide: entrectinib,
[1]; [7]
  NTRK3 modulated by drug in opposite direction to suicide: entrectinib,

## OCCN1CCN(CCCN2c3ccccc3C=Cc3ccccc32)CC1 [opipramol]
[1]; [8]
  HTR2A modulated by drug in opposite direction to suicide: opipramol,
[1]; [6]
  HTR2A modulated by drug in opposite direction to suicide: opipramol,
[1]; [9]
  HTR2A modulated by drug in opposite direction to suicide: opipramol,
[1]; [10]
  HTR2A modulated by drug in opposite direction to suicide: opipramol,

## CNCCCN1c2ccccc2CCc2ccccc21 [desipramine]
[2]; HTR2A, 244130_at
  Drugs that Modulate the Biomarker in Opposite Direction to Suicide: desipramine

## CN1CCC(=C2c3ccccc3CCc3cccnc32)CC1 [azatadine]
[2]; HTR2A, 244130_at
  Drugs that Modulate the Biomarker in Opposite Direction to Suicide: azatadine

## CN1C[C@H](C(=O)N[C@]2(C)O[C@@]3(O)[C@@H]4CCCN4C(=O)[C@H](Cc4ccccc4)N3C2=O)C[C@@H]2c3cccc4[nH]cc(c34)C[C@H]21 [dihydroergotamine]
[2]; HTR2A, 244130_at
  Drugs that Modulate the Biomarker in Opposite Direction to Suicide: dihydroergotamine

## CN(C)CCC=C1c2ccccc2COc2ccccc21 [doxepin]
[2]; HTR2A, 244130_at
  Drugs that Modulate the Biomarker in Opposite Direction to Suicide: doxepin

## CN[C@H]1CC[C@@H](c2ccc(Cl)c(Cl)c2)c2ccccc21 [Sertraline]
[1]; [11]
  TNF modulated by drug in opposite direction to suicide: Sertraline

## O=C(CCCN1CCC(O)(c2ccc(Cl)cc2)CC1)c1ccc(F)cc1 [haloperidol, reference compound]
[1]; [6]
  BDNF modulated by drug in opposite direction to suicide: Haloperidol
[1]; [12]
  BDNF modulated by drug in opposite direction to suicide: Haloperidol
[1]; biomarker AGA (aspartyl glucosaminidase), Table 20 CFE drug-evidence
  Drugs that modulate the biomarker AGA: Haloperidol
[1]; biomarker AGA (aspartylglucosaminidase)
  Step 6 Drugs that Modulate the Biomarker in Opposite Direction to Suicide: Haloperidol
[1]; biomarker AKAP13 (A kinase (PRKA) anchor protein 13)
  Step 6 Drugs that Modulate the Biomarker in Opposite Direction to Suicide: Haloperidol
[1]; biomarker RIMS3 (regulating synaptic membrane exocytosis 3), Table 20 CFE drug-evidence
  Drugs that modulate the biomarker RIMS3: Haloperidol

## O=C1NCCN1CCN1CCC(c2cn(-c3ccc(F)cc3)c3ccc(Cl)cc23)CC1 [sertindole]
[2]; HTR2A, 244130_at
  Drugs that Modulate the Biomarker in Opposite Direction to Suicide: sertindole

## CCN(CC)C(=O)N[C@H]1C=C2c3cccc4[nH]cc(c34)C[C@H]2N(C)C1 [lisuride]
[2]; HTR2A, 244130_at
  Drugs that Modulate the Biomarker in Opposite Direction to Suicide: lisuride

## OCCOCCN1CCN(C2=Nc3ccccc3Sc3ccccc32)CC1 [quetiapine]
[2]; HTR2A, 244130_at
  Drugs that Modulate the Biomarker in Opposite Direction to Suicide: quetiapine

## OCCOCCN1CCN(C2=Nc3ccccc3Sc3ccccc32)CC1 [Quetiapine]
[1]; [13]
  IFNG modulated by drug in opposite direction to suicide: Quetiapine,
[1]; [14]
  Step 6 Drugs that Modulate the Biomarker in Opposite Direction to Suicide: Quetiapine

## CNCCC(Oc1ccc(C(F)(F)F)cc1)c1ccccc1 (centres unmarked) [Fluoxetine]
[1]; [6]
  BDNF modulated by drug in opposite direction to suicide: Fluoxetine
[1]; E. Top Biomarkers in Depression, direction of change in suicidality (D), AP/1
  ACP1 modulated by drug in opposite direction to suicide: Fluoxetine
[1]; [12]
  BDNF modulated by drug in opposite direction to suicide: Fluoxetine
  JUN modulated by drug in opposite direction to suicide: Fluoxetine
[1]; [7]
  NTRK3 modulated by drug in opposite direction to suicide: Fluoxetine

## CN(C)C(=O)N[C@H]1CC[C@H](CCN2CCN(c3cccc(Cl)c3Cl)CC2)CC1 [cariprazine]
[1]; [8]
  HTR2A modulated by drug in opposite direction to suicide: cariprazine,
[1]; [6]
  HTR2A modulated by drug in opposite direction to suicide: cariprazine,
[1]; [9]
  HTR2A modulated by drug in opposite direction to suicide: cariprazine,
[1]; [10]
  HTR2A modulated by drug in opposite direction to suicide: cariprazine,

## O=C1Cc2cc(CCN3CCN(c4nsc5ccccc45)CC3)c(Cl)cc2N1 [Ziprasidone]
[1]; [14]
  Step 6 Drugs that Modulate the Biomarker in Opposite Direction to Suicide: Ziprasidone

## Cc1ccc(C23CNCC2C3)cc1 (centres unmarked) [bicifadine]
[1]; [3]
  SLC6A4 modulated by drug in opposite direction to suicide: bicifadine,
[1]; [4]
  SLC6A4 modulated by drug in opposite direction to suicide: bicifadine,

## C/C=C(/C)C(=O)O[C@H]1C(C)=C[C@]23C(=O)[C@@H](C=C(CO)[C@@H](O)[C@]12O)[C@H]1[C@@H](C[C@H]3C)C1(C)C [Ingenol mebutate]
[1]; biomarker PRKCB (protein kinase C, beta), Table 20 CFE drug-evidence
  Drugs that modulate the biomarker PRKCB: Ingenol mebutate
[1]; biomarker PRKCI (protein kinase C, iota)
  Step 6 Drugs that Modulate the Biomarker in Opposite Direction to Suicide: Ingenol

## CCc1nn(CCCN2CCN(c3cccc(Cl)c3)CC2)c(=O)n1CCOc1ccccc1 [Nefazodone]
[1]; [14]
  Step 6 Drugs that Modulate the Biomarker in Opposite Direction to Suicide: Nefazodone

## Oblimersen
[1]; [5]
  Step 6 Drugs that Modulate the Biomarker in Opposite Direction to Suicide: Oblimersen

## infliximab
[1]; [11]
  TNF modulated by drug in opposite direction to suicide: infliximab,

## CC[C@@H](CO)NC(=O)[C@@H]1C=C2c3cccc4c3c(cn4C)C[C@H]2N(C)C1 [methysergide]
[2]; HTR2A, 244130_at
  Drugs that Modulate the Biomarker in Opposite Direction to Suicide: methysergide

## golimumab
[1]; [11]
  TNF modulated by drug in opposite direction to suicide: golimumab,

## O=C1CCc2ccc(OCCCCN3CCN(c4cccc(Cl)c4Cl)CC3)cc2N1 [aripiprazole]
[2]; HTR2A, 244130_at
  Drugs that Modulate the Biomarker in Opposite Direction to Suicide: aripiprazole

## COc1cc(C(C)=O)ccc1OCCCN1CCC(c2noc3cc(F)ccc23)CC1 [Iloperidone]
[1]; [8]
  HTR2A modulated by drug in opposite direction to suicide: Iloperidone,
[1]; [6]
  HTR2A modulated by drug in opposite direction to suicide: Iloperidone,
[1]; [9]
  HTR2A modulated by drug in opposite direction to suicide: Iloperidone,
[1]; [10]
  HTR2A modulated by drug in opposite direction to suicide: Iloperidone,

## CN1C[C@H](C(=O)N[C@]2(C)O[C@@]3(O)[C@@H]4CCCN4C(=O)[C@H](Cc4ccccc4)N3C2=O)C=C2c3cccc4[nH]cc(c34)C[C@H]21 [ergotamine]
[2]; HTR2A, 244130_at
  Drugs that Modulate the Biomarker in Opposite Direction to Suicide: ergotamine

## Tocilizumab
[1]; biomarker IL6 (interleukin 6)
  Step 6 Drugs that Modulate the Biomarker in Opposite Direction to Suicide: Tocilizumab

## Recombinant-methionyl human leptin
[1]; biomarker LEPR (leptin receptor)
  Step 6 Drugs that Modulate the Biomarker in Opposite Direction to Suicide: Recombinant-

## CCO [Alcohol]
[2]
  Drugs that Modulate the Biomarker in Opposite Direction to Suicide (direction of change by drug): (D) and (I)

## CN1CCN(CCCN2c3ccccc3Sc3ccc(S(=O)(=O)N(C)C)cc32)CC1 [thioproperazine]
[1]; [8]
  HTR2A modulated by drug in opposite direction to suicide: thioproperazine,
[1]; [6]
  HTR2A modulated by drug in opposite direction to suicide: thioproperazine,
[1]; [9]
  HTR2A modulated by drug in opposite direction to suicide: thioproperazine,
[1]; [10]
  HTR2A modulated by drug in opposite direction to suicide: thioproperazine,

## CN[C@@H](C)Cc1ccccc1 [Methamphetamine]
[2]; CRYAB, 209283_at
  Drugs that Modulate the Biomarker in Opposite Direction to Suicide: Methamphetamine

## O=C1Cc2cc(CCN3CCN(c4nsc5ccccc45)CC3)c(Cl)cc2N1 [ziprasidone]
[2]; HTR2A, 244130_at
  Drugs that Modulate the Biomarker in Opposite Direction to Suicide: ziprasidone

## CN1CC2c3ccccc3Oc3ccc(Cl)cc3C2C1 (centres unmarked) [asenapine]
[1]; [8]
  HTR2A modulated by drug in opposite direction to suicide: asenapine,
[1]; [6]
  HTR2A modulated by drug in opposite direction to suicide: asenapine,
[1]; [9]
  HTR2A modulated by drug in opposite direction to suicide: asenapine,
[1]; [10]
  HTR2A modulated by drug in opposite direction to suicide: asenapine,

## CN1CCc2cccc3c2[C@H]1Cc1ccc(O)c(O)c1-3 [apomorphine]
[2]; HTR2A, 244130_at
  Drugs that Modulate the Biomarker in Opposite Direction to Suicide: apomorphine

## CN1CCCCC1CCN1c2ccccc2Sc2ccc([S+](C)[O-])cc21 (centres unmarked) [mesoridazine]
[2]; HTR2A, 244130_at
  Drugs that Modulate the Biomarker in Opposite Direction to Suicide: mesoridazine

## Fc1ccc([C@@H]2CCNC[C@H]2COc2ccc3c(c2)OCO3)cc1 [Paroxetine]
[1]; A. Top Universal Biomarkers, direction of change in suicidality (D), AP/4
  CCL28 modulated by drug in opposite direction to suicide: Paroxetine

## CN(C)CCC=C1c2ccccc2CCc2ccccc21 [amitriptyline]
[2]; HTR2A, 244130_at
  Drugs that Modulate the Biomarker in Opposite Direction to Suicide: amitriptyline

## tocilizumab
[1]; B. Top Biomarkers in Males, direction of change in suicidality I, AP/2
  IL6 modulated by drug in opposite direction to suicide: tocilizumab,

## CN1CCN2c3ncccc3Cc3ccccc3C2C1 (centres unmarked) [Mirtazapine]
[1]; [14]
  Step 6 Drugs that Modulate the Biomarker in Opposite Direction to Suicide: Mirtazapine

## O=C1CCc2ccc(OCCCCN3CCN(c4cccc(Cl)c4Cl)CC3)cc2N1 [Aripiprazole]
[1]; [13]
  IFNG modulated by drug in opposite direction to suicide: Aripiprazole
[1]; [14]
  Step 6 Drugs that Modulate the Biomarker in Opposite Direction to Suicide: Aripiprazole

## CC#C[C@]1(O)CC[C@H]2[C@@H]3CCC4=CC(=O)CCC4=C3[C@@H](c3ccc(N(C)C)cc3)C[C@@]21C [Mifepristone]
[1]; [6]
  BDNF modulated by drug in opposite direction to suicide: Mifepristone
[1]; [12]
  BDNF modulated by drug in opposite direction to suicide: Mifepristone

## O=C1CCC(N2C(=O)c3ccccc3C2=O)C(=O)N1 (centres unmarked) [thalidomide]
[1]; [11]
  TNF modulated by drug in opposite direction to suicide: thalidomide

## CSc1ccc2c(c1)N(CCC1CCCCN1C)c1ccccc1S2 (centres unmarked) [thioridazine]
[2]; HTR2A, 244130_at
  Drugs that Modulate the Biomarker in Opposite Direction to Suicide: thioridazine

## COc1ccc(C(CN(C)C)C2(O)CCCCC2)cc1 (centres unmarked) [Venlafaxine]
[1]; [11]
  TNF modulated by drug in opposite direction to suicide: Venlafaxine

## CCc1nn(CCCN2CCN(c3cccc(Cl)c3)CC2)c(=O)n1CCOc1ccccc1 [nefazodone]
[2]; HTR2A, 244130_at
  Drugs that Modulate the Biomarker in Opposite Direction to Suicide: nefazodone

## CN(C)CCCN1c2ccccc2CCc2ccc(Cl)cc21 [clomipramine]
[2]; HTR2A, 244130_at
  Drugs that Modulate the Biomarker in Opposite Direction to Suicide: clomipramine

## etanercept
[1]; [11]
  TNF modulated by drug in opposite direction to suicide: , etanercept,
